CCOC(=O)Cc1c(C(=O)OCC)sc(N)c1C#N
solubility (mole fraction)
Details | 273.15 K | 278.15 K | 283.15 K | 288.15 K | 293.15 K | 298.15 K | 303.15 K | 308.15 K | 313.15 K | 318.15 K
in acetone | 0.0446 | 0.0499 | 0.0558 | 0.0628 | 0.071 | 0.0801 | 0.0902 | 0.101 | 0.113 | 0.126
in acetonitrile | 0.0082 | 0.0102 | 0.0125 | 0.0151 | 0.0185 | 0.0225 | 0.0268 | 0.0323 | 0.0385 | 0.0455
in ethanol | 0.0031 | 0.00399 | 0.00505 | 0.00637 | 0.00798 | 0.00998 | 0.0123 | 0.015 | 0.0186 | 0.0227
in ethyl acetate | 0.0237 | 0.0257 | 0.0286 | 0.0318 | 0.0349 | 0.0386 | 0.0427 | 0.0473 | 0.0519 | 0.0567
in isopropanol | 0.00232 | 0.00307 | 0.00396 | 0.00513 | 0.00656 | 0.00845 | 0.0107 | 0.0134 | 0.0168 | 0.0213
in methanol | 0.00483 | 0.00609 | 0.00759 | 0.00947 | 0.0118 | 0.0144 | 0.0176 | 0.0214 | 0.0261 | 0.0313
in n-butanol | 0.00204 | 0.00266 | 0.00343 | 0.00438 | 0.00559 | 0.0071 | 0.0091 | 0.0114 | 0.0144 | 0.0177
in n-propanol | 0.00217 | 0.00286 | 0.0036 | 0.00471 | 0.00618 | 0.00763 | 0.00961 | 0.012 | 0.0151 | 0.0188
in toluene | 0.000402 | 0.00052 | 0.000664 | 0.000858 | 0.00109 | 0.00139 | 0.00171 | 0.00215 | 0.00265 | 0.00323

Source: BigSolDB 2.1
